Laboratory results: US9226918B2, “Methods and compositions for treating or preventing narcotic withdrawal symptoms” (The Board of Trustees of the Leland Stanford Junior …, priority 2008, dated 2016)
“Also recorded” adds a separate entry of the source.

Legend:
Format in all cases: in vivo
C57BL/6J mice [1] = assay: Conditioned place preference (CPP) associated with morphine
Experimental: The CPP experiments were performed using Place Preference System (MED Associates Inc., St. Albans, Vt.), which consists of three compartments; two outer compartments for active association and a middle neutral compartment. One association compartment is constructed of white opaque plastic walls with a floor made of metal rods while the other compartment is made of black opaque plastic walls with a metal mesh floor. The smaller middle neutral compartment is made of gray opaque plastic walls and floor. Experiments were conducted in a dimly lit room with homogenous lighting (˜20 lux). The place preference apparatus is equipped with motion photo-sensors with data recorded via a computer running MED PC software (MED Associates Inc, Vt.). C57B1/6J mice (8 to 12 weeks old) were used in all experiments, which were carried out during the second half of the light phase between 13:00-18:00 hr. On Day 0, the mice were acclimated to the test room and the time spent in each compartment was recorded (pre-conditioning report). Any mouse that spent more than 75% of the time in either of the association compartments was excluded. On the following day each mouse was randomized to a control or drug group and assigned to either the white or black association compartments in a counter-balanced fashion (n=10-15 per group). […] Twenty-five minutes after injection(s), each mouse was placed into its assigned association compartment for 25 min without access to the other compartments. On Days 2, 4 and 6, the mice received saline injections and were placed in the alternative compartment after 25 min. On Day 7, mice were placed in the middle neutral compartment of the place preference apparatus with full access to the other two compartments and assessed for the length of time spent in each compartment (post-conditioning report). The percentage of time spent in each association compartment was calculated relative to the total time spent in both association compartments.

healthy male volunteers = assay: Acute naloxone-precipitated opioid withdrawal in human volunteers after ondansetron pretreatment (OOWS, SOWS)
From the text: Eight healthy male volunteers underwent an acute precipitated narcotic drug withdrawal protocol as previously described (Compton, P., et al., Pharmacol Biochem Behav, 2004. 77(2): p. 263-268) with or without ondansetron pretreatment using a randomized double-blinded placebo-controlled crossover study design on two separate occasions. Test sessions for each individual subject were separated by at least seven days. Female volunteers were excluded from the study due to modulation of opioid response by menstruation cycles (Hoehe, M., Psychoneuroendocrinology, 1988. 13(4): p. 339-344). The human experimental protocol was approved by the Institutional Review Board (Stanford University). Each volunteer provided written informed consent prior to study enrollment, and the study was registered in the clinicaltrials.gov database (identifier NCT00661674).
All study sessions were conducted by a blinded research assistant (ND) and supervised by an un-blinded physician (LC) who administered the study medication and monitored heart rate, blood pressure and arterial oxygenation throughout the study. The subjective opioid withdrawal scale (SOWS) and objective opioid withdrawal scale (OOWS) were completed after establishing intravenous access and before administration of study medications, as originally described by Handelsman et al (Handelsman, L., et al., Am J Drug Alcohol Abuse, 1987. 13(3): p. 293-308). All OOWS measurements were obtained by the same blinded research assistant (ND). Ondansetron (Bedford Laboratories, Bedford, Ohio) 8 mg or placebo (0.9% saline solution, Hospira Inc., Lake Forest, Ill.) was administered in a double-blinded fashion as an IV bolus. […] Patients remained in the lab under observation for 105 minutes and were offered music or video entertainment and caffeine-free meals or snacks ad lib during this period of time. After 105 minutes, the patient's vital signs and OOWS and SOWS were reassessed. […] Vital signs, SOWS and OOWS were administered five minutes and fifteen minutes after the naloxone administration.
Animal behavioral data was analyzed using one or two-way ANOVA with post-hoc Tukey testing or, for conditioned place preference data with t-testing. The outcome measures of interest between the placebo- and ondansetron-treated groups were compared using paired t test and the Wilcoxon Signed Rank test where appropriate. Normal distribution was determined using QQ plots and the Kolmogorov-Smirnov test. Analyses were performed with SAS 9.1 statistical package (Cary, Ill.) with p<0.05 considered statistically significant.

C57BL/6J mice [2] = assay: Opioid dependence related hyperalgesia, mechanical nociceptive threshold (von Frey filaments)
Experimental: (§1) In some experiments the selective 5-HT3 antagonist ondansetron (Sigma) was administered. For systemic administration, ondansetron was injected subcutaneously in […] of 0.9% NaCl to some groups of mice. […] For intracerebroventricular (i.c.v.) administration, mice were briefly anesthetized with inhaled isoflurane. A 30 gauge ½ inch needle was used to pierce the skull and enter the ventricles using an approach described previously (Pedigo, N. W. et al. J Pharmacol Exp Ther, 1975. 193(3): p. 845-852). Once inserted, 5 μl of injectate was slowly administered using a microsyringe, and the animals were used within 20 minutes after the injection.
In these experiments, mice were placed on wire mesh platforms in clear cylindrical plastic cylinders. After 15 minutes of acclimation, fibers of sequentially increasing stiffness were applied to the plantar surface of one hind paw, pressed upward to cause a slight bend in the fiber and left in place 5 sec. Withdrawal of the hind paw from the fiber was scored as a response. When no response was obtained the next stiffest fiber in the series was applied to the same paw; if a response was obtained a less stiff fiber was applied. Testing proceeded in this manner until 4 fibers had been applied after the first one causing a withdrawal response allowing the estimation of the mechanical withdrawal threshold (Poree, L. R., et al., Anesth Analg, 1998. 87(4): p. 941-948).

morphine-dependent mice = assay: Naloxone-precipitated withdrawal jumping in morphine-dependent mice
Experimental: After naloxone administration, mice were placed in clear plastic cylinders (10 cm in diameter and 40 cm in height, and the number of jumps during the following 15 minutes were counted. Naloxone precipitated jumping behavior is a robust response reflecting physical dependence on opioids observed across strains of inbred mice (Kest, B., et al., Neuroscience 2002. 115(2): 463-469).
as §1

male volunteers = assay: Naloxone-induced withdrawal in human volunteers, palonosetron alone or with hydroxyzine; settings: palonosetron 0.75 mg IV alone, 12 male volunteers
Experimental: In these studies, palonosetron (a 5-HT3 antagonist) was administered alone, or in combination with a clinically available antihistamine (hydroxyzine) to human volunteers.

Htr3b mRNA = Htr3b mRNA expression in brain after chronic morphine (specificity control); settings: brain tissue, four days of morphine versus saline, C57Bl/6J and 129/SvlmJ mice
[3] = ondansetron 8 mg IV 30 minutes prior to morphine 10 mg/70 kg IV, naloxone 120 minutes after morphine, versus placebo

Cc1nccn1CC1CCc2c(c3ccccc3n2C)C1=O (stereo not drawn) [ondansetron]
mean difference between pre and post conditioning percentage of time spent in the compartment associated with drug (C57BL/6J mice [1]; ondansetron 1 mg/kg in addition to morphine 5 mg/kg, i.p.): 0.40%
place preference associated with morphine administration (C57BL/6J mice [1]; ondansetron 1 mg/kg plus morphine 5 mg/kg): completely blocked
decrease in mean OOWS score (healthy male volunteers; [3]): 76.4%±22.6
mean decrease in the subjective symptoms (SOWS score) (healthy male volunteers; [3]): 4.1%±62.5
individual OOWS signs manifested by the volunteers (healthy male volunteers; ondansetron 8 mg IV pre-treatment, 12 of the 13 measured signs manifested): decreased all 12 of these individual signs
objective signs of opioid withdrawal in affected subjects (healthy male volunteers; ondansetron 8 mg IV pre-treatment, seven of 8 subjects developed signs): reduced these signs in all seven affected individuals
pain sensitivity / baseline nociceptive thresholds (C57BL/6J mice [2]; control mice not treated with morphine, ondansetron 30 minutes prior to threshold assessment): no effect on pain sensitivity; also recorded: did not alter baseline nociceptive thresholds
hyperalgesia (mechanical nociceptive sensitization) during morphine abstinence (C57BL/6J mice [2]; morphine-dependent mice, 18 hours after last morphine dose, ondansetron 30 minutes prior to threshold assessment (FIG. 4)): reversed the hyperalgesia; also recorded: dose-dependently reversed
naloxone-precipitated withdrawal response (morphine-dependent mice; C57BL/6J mice, ondansetron 1 mg/kg with each morphine dose during 4-day protocol, tested 18 hours after final dose (FIG. 3B)): diminished the naloxone-precipitated withdrawal response
inhibition of naloxone-precipitated withdrawal (morphine-dependent mice; morphine-dependent C57BL/6J mice, ondansetron 1 mg/kg given acutely): not able to effectively inhibit withdrawal
naloxone-precipitated jumping behavior (morphine-dependent mice; morphine-dependent C57BL/6J mice, ondansetron i.c.v. before naloxone (FIG. 3C)): profoundly blocked; also recorded: statistically significant and dose-dependent reduction
naloxone-induced jumping (morphine-dependent mice; morphine-dependent C57BL/6J mice, ondansetron s.c. once, range of doses, 30 minutes prior to testing (FIG. 3A)): significantly reduced; also recorded: statistically significant and dose-dependent reduction

O=C1c2cccc3c2[C@H](CCC3)CN1[C@@H]1CN2CCC1CC2 [palonosetron]
naloxone-induced withdrawal symptoms relative to placebo control (male volunteers): reduced the naloxone-induced withdrawal symptoms

CN1CC[C@]23c4c5ccc(O)c4O[C@H]2[C@@H](O)C=C[C@H]3[C@H]1C5 [morphine]
mean difference between pre and post conditioning percentage of time spent in the compartment associated with drug (C57BL/6J mice [1]; morphine 5 mg/kg i.p., placed in conditioning chamber 25 min after injection): 21.29%
expression of the Htr3b gene (Htr3b mRNA): not altered
hyperalgesia after chronic morphine treatment (C57BL/6J mice [2]; C57BL/6J mice, four day morphine protocol): caused hyperalgesia
jumps in the 15 minute period following naloxone administration (morphine-dependent mice; BUB/BnJ mice made dependent on morphine over a 4-day period): over 100
jumps in the 15 minute period following naloxone administration (morphine-dependent mice; SM/J mice made dependent on morphine over a 4-day period): one
